Results reported in PubChem BioAssay (NCI).
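Dose response: 5 concentrations. Exposure: 48 h. Format: 96-well plates. Endpoint: linear interpolation; highest concentration if not reached. At the TGI there is no net growth.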

Key:
Assay in all cases: DTP human tumour cell line panel, 48 h
DU-145 prostate = system: DU-145 prostate
SF-295 CNS = system: SF-295 CNS
K-562 leukemia = system: K-562 leukemia
PC-3 prostate = system: PC-3 prostate
HCC-2998 colon = system: HCC-2998 colon
U251 CNS = system: U251 CNS
MDA-MB-231 breast = system: MDA-MB-231 breast
786-0 renal = system: 786-0 renal
A549 NSCLC = system: A549 NSCLC
SW-620 colon = system: SW-620 colon
KM12 colon = system: KM12 colon
SK-MEL-28 melanoma = system: SK-MEL-28 melanoma
SF-268 CNS = system: SF-268 CNS
M14 melanoma = system: M14 melanoma
SR leukemia = system: SR leukemia
SK-MEL-5 melanoma = system: SK-MEL-5 melanoma
OVCAR-3 ovarian = system: OVCAR-3 ovarian
MDA-N = system: MDA-N

Compound	TGI (DU-145 prostate)	TGI (SF-295 CNS)	TGI (K-562 leukemia)	TGI (PC-3 prostate)	TGI (HCC-2998 colon)	TGI (U251 CNS)	TGI (MDA-MB-231 breast)	TGI (786-0 renal)	TGI (A549 NSCLC)	TGI (SW-620 colon)	TGI (KM12 colon)	TGI (SK-MEL-28 melanoma)	TGI (SF-268 CNS)	TGI (M14 melanoma)	TGI (SR leukemia)	TGI (SK-MEL-5 melanoma)	TGI (OVCAR-3 ovarian)	TGI (MDA-N)
Nc1ccccc1OCCCOc1ccccc1N	> 100 µM	> 100 µM	> 100 µM	> 100 µM	> 100 µM	> 100 µM	> 100 µM	> 100 µM	> 100 µM	> 100 µM	> 100 µM	> 100 µM	> 100 µM	> 100 µM	> 100 µM	> 100 µM	> 100 µM	> 100 µM
CCC(=O)N1C(=O)C(CC)(CC)C(=O)N1C(=O)CC	> 100 µM	> 100 µM	> 100 µM	> 100 µM	> 100 µM	> 100 µM	> 100 µM	> 100 µM	> 100 µM	> 100 µM	> 100 µM	> 100 µM	> 100 µM	> 100 µM	> 100 µM	> 100 µM	> 100 µM	> 100 µM
COC1=CC(=O)c2nc3ccccc3c3ccnc1c23	14.4 µM	19.7 µM	> 100 µM	> 31.3 µM	11.8 µM	> 67.3 µM	> 69 µM	> 48.7 µM	13.9 µM	35.1 µM	> 43.3 µM	41.5 µM	> 44.2 µM	13.7 µM	10.8 µM	2.82 µM	> 21.4 µM	0.448 µM
OC1(c2ccc(Cl)cc2)c2c(c3ccccc3c3ccccc23)C2=NCCN21 (centres undefined)	45.6 µM	28.1 µM	> 100 µM	49.6 µM	6.85 µM	30.8 µM	26.8 µM	15.2 µM	59 µM	32.8 µM	47.8 µM	34.9 µM	24.9 µM	27 µM	30.5 µM	> 100 µM	62.1 µM	51.1 µM
O=C(N[C@H]1CCC[C@H]1C(=O)Nc1ccc(C(F)(F)F)cc1)OCc1ccccc1	> 100 µM	> 100 µM	> 100 µM	> 100 µM	> 100 µM	> 100 µM	> 100 µM	> 100 µM	> 100 µM	> 100 µM	> 100 µM	> 100 µM	> 100 µM	> 100 µM	> 100 µM	> 100 µM	> 100 µM	> 100 µM
S=C(N/N=C(\C(=N/NC(=S)N1CCCCC1)c1ccccn1)c1ccccn1)N1CCCCC1	> 100 µM	> 100 µM	> 100 µM	> 100 µM	> 100 µM	> 100 µM	> 100 µM	> 100 µM	> 100 µM	> 100 µM	> 100 µM	> 100 µM	> 100 µM	50.3 µM	> 100 µM	> 100 µM	> 100 µM	> 100 µM
COc1ccc(-c2nc(-c3cnccn3)n(Cc3ccccc3)n2)cc1	> 100 µM	> 100 µM	> 100 µM	> 100 µM	> 100 µM	> 100 µM	> 100 µM	> 100 µM	> 100 µM	> 100 µM	> 100 µM	> 100 µM	> 100 µM	> 100 µM	> 100 µM	> 100 µM	> 100 µM	> 100 µM
CO[C@]12CC(=O)C3(C(C[C@H]4CC5CC[C@H]6C[C@@H](OC(C)=O)CC[C@]6(OC(C)=O)C5C[C@@]43C)C1)C1C[C@H]3[C@@H]4CC[C@H]5C[C@@H](OC(C)=O)CC[C@]5(OC(C)=O)[C@H]4CC[C@]3(C)C12 (some centres undefined)	> 100 µM	> 100 µM	> 100 µM	> 100 µM	> 100 µM	> 100 µM	> 100 µM	> 100 µM	> 100 µM	> 100 µM	> 100 µM	> 100 µM	> 100 µM	> 100 µM	> 100 µM	> 100 µM	> 100 µM	> 100 µM
COc1ccc(C2C(C#N)=C(S)N(C3OC(CO)C(O)C(O)C3O)C(C)=C2C(C)=O)cc1 (centres undefined)	> 100 µM	> 100 µM	> 100 µM	> 100 µM	> 100 µM	> 100 µM	> 100 µM	> 100 µM	> 100 µM	> 100 µM	> 100 µM	> 100 µM	> 100 µM	> 100 µM	> 100 µM	> 100 µM	> 100 µM	> 100 µM
CS(=O)(=O)OCC1CCCCCCCCCCC12SCCCS2 (centres undefined)	> 100 µM	> 100 µM	> 100 µM	> 100 µM	> 100 µM	> 100 µM	> 100 µM	> 100 µM	> 100 µM	> 100 µM	> 100 µM	> 100 µM	> 100 µM	> 100 µM	> 100 µM	> 100 µM	> 100 µM	> 100 µM
CCN(CC)C1Oc2cc3c(cc2C(c2cccc(OC)c2O)C1C)OCO3 (centres undefined)	> 66.7 µM	15.4 µM	> 100 µM	> 35.8 µM	> 46.7 µM	17.9 µM	> 49.7 µM	26.3 µM	24.6 µM	35.4 µM	16.6 µM	42.2 µM	> 54 µM	12.6 µM	25.3 µM	13.6 µM	5.5 µM	5.82 µM
O=C1CC(C(COCc2ccccc2)OCc2ccccc2)CC(=O)N1 (centres undefined)	> 100 µM	> 100 µM	> 100 µM	> 100 µM	> 100 µM	> 100 µM	> 100 µM	> 100 µM	> 100 µM	> 100 µM	> 100 µM	> 100 µM	> 100 µM	> 100 µM	> 100 µM	> 100 µM	> 100 µM	> 100 µM
COc1cc(/C=C/C(=N\NC(=S)NN)c2sc(NNC(C)=O)nc2C)ccc1O	> 100 µM	> 100 µM	> 100 µM	> 100 µM	> 100 µM	> 100 µM	> 100 µM	> 100 µM	> 100 µM	> 100 µM	> 100 µM	> 100 µM	> 100 µM	> 100 µM	> 100 µM	> 100 µM	> 100 µM	> 100 µM
COc1ccc(Cn2c3ccc([N+](=O)[O-])cc3c(=O)n2Cc2ccccn2)cc1	> 100 µM	> 100 µM	> 100 µM	> 100 µM	> 100 µM	> 100 µM	> 100 µM	> 100 µM	> 100 µM	> 100 µM	> 100 µM	> 100 µM	> 100 µM	> 100 µM	> 100 µM	83.9 µM	> 100 µM	> 100 µM
CC(C)=CCC[C@@H](C)C1=CC(=O)C(C)=C(O)C1=O	15.7 µM	27.3 µM	5.79 µM	18.2 µM	32.9 µM	38.7 µM	18.1 µM	17.5 µM	25 µM	33.5 µM	16.1 µM	31 µM	24.3 µM	17.4 µM	5.98 µM	16.4 µM	15.8 µM	16.6 µM
COC12C=CC(CC1)C(C)(C)C2OS(C)(=O)=O (centres undefined)	> 100 µM	> 100 µM	> 100 µM	> 100 µM	> 100 µM	> 100 µM	> 100 µM	> 100 µM	> 100 µM	> 100 µM	> 100 µM	> 100 µM	> 100 µM	> 100 µM	> 100 µM	> 100 µM	> 100 µM	> 100 µM
COc1ccc(N2N=NN(C(C)C)/C2=C(/Cl)c2nnnn2-c2ccc(OC)cc2)cc1	22.7 µM	30.4 µM	> 32.5 µM	28.3 µM	34.4 µM	33.7 µM	22.6 µM	7.06 µM	33.6 µM	3.96 µM	31.3 µM	29.7 µM	34.6 µM	21.9 µM	> 31.8 µM	28.7 µM	24.5 µM	27.4 µM
OC(C1CCCCCCCCCC1)C(O)C1CCCCCCCCCC1 (centres undefined)	> 100 µM	> 100 µM	> 100 µM	> 100 µM	> 100 µM	> 100 µM	> 100 µM	> 100 µM	> 100 µM	> 100 µM	> 100 µM	> 100 µM	> 100 µM	> 100 µM	> 100 µM	> 100 µM	> 100 µM	> 100 µM
